Where two headings read alike, the source gives them in different places.
Tests used:
all 50 cell lines = assay: CellTiter-Glo Viability Assay, average across all cell lines; type: cell-based; settings: Homo sapiens; across all 50 cell lines; read-out: average EC50 for inhibition of cancer cell proliferation
Outline: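 Cells were plated at 300-3,000 per well in their own media, then treated with compound in duplicate, with DMSO wells as controls. After four days at 37° C and 5% CO2, CellTiter-Glo was added, and luminescence was read. EC50s were fitted.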

CLK2 = target: T1, CLK2 (Homo sapiens, UniProt P49760); assay: CLK2 kinase activity assay (Z-lyte, Ser/Thr 6 peptide); type: biochemical; settings: recombinant CLK2 kinase, ATP 60 μM; read-out: EC50
T1 construct: purchased Thermo Fisher (Life Technologies), Z'-LYTE Kinase Assay Kits
T1 sequence (P49760 whole entry): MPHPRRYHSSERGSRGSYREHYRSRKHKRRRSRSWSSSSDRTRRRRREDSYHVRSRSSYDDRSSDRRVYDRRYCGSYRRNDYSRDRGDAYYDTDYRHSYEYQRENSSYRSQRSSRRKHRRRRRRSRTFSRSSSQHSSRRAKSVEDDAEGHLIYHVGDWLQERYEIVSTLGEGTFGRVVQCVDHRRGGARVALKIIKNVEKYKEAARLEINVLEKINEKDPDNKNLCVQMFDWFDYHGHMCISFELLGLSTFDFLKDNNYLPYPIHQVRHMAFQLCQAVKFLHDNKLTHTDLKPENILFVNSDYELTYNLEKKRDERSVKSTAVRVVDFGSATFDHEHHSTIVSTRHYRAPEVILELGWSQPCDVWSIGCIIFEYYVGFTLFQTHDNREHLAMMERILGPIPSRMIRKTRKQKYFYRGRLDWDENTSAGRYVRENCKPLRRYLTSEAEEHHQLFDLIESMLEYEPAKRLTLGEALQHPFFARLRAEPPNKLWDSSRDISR
Protocol: All reactions were performed in duplicate.

[1] = system: colorectal cancer (6 cell lines); assay: CellTiter-Glo Viability Assay, colorectal cancer; type: cell-based; settings: Homo sapiens, inhibition of cancer cell proliferation
[2] = system: liver cancer (3 cell lines); assay: CellTiter-Glo Viability Assay, liver cancer; type: cell-based; settings: Homo sapiens, inhibition of cancer cell proliferation
[3] = system: pancreatic cancer (8 cell lines); assay: CellTiter-Glo Viability Assay, pancreatic cancer; type: cell-based; settings: Homo sapiens, inhibition of cancer cell proliferation
[4] = system: haematopoietic & lymphoid tumors (13 cell lines); assay: CellTiter-Glo Viability Assay, haematopoietic & lymphoid tumors; type: cell-based; settings: Homo sapiens, inhibition of cancer cell proliferation
[5] = system: ovarian cancer (4 cell lines); assay: CellTiter-Glo Viability Assay, ovarian cancer; type: cell-based; settings: Homo sapiens, inhibition of cancer cell proliferation
CLK3 = CLK3 (Homo sapiens, UniProt P49761); assay: CLK3 kinase activity assay (Z-lyte, Ser/Thr 18 peptide)
Chain of CLK3 (P49761 whole entry): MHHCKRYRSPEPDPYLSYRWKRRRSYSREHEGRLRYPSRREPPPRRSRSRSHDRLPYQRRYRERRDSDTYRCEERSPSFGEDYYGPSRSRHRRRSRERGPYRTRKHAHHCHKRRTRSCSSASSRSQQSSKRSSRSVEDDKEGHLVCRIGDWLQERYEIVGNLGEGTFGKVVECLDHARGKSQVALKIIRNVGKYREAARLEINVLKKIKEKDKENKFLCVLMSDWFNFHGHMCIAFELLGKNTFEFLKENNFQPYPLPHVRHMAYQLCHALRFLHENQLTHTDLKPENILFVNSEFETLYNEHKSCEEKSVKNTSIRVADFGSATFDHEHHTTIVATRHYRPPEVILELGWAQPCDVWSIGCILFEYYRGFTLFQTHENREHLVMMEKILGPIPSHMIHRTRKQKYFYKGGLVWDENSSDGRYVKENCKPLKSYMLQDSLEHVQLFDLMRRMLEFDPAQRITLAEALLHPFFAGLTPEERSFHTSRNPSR
Protocol: Each compound was dissolved in DMSO as a 10 mM stock and used to prepare compound source plates.
This is a non-radioactive assay using fluorescence resonance energy transfer (FRET) between coumarin and fluorescein to detect kinase activity which is represented as a ratio of coumarin emission/fluorescein emission.
All reactions were performed in duplicate. Unphosphorylated (“0% Control”) and phosphorylated (“100% control”) forms of Ser/Thr 18 served as control reactions. Additionally, an 11-point dose-response curve of Staurosporine (1 uM top) was run to serve as a positive compound control.
After incubation, Development Reagent A was diluted in Development Buffer then added to the reaction and allowed to further incubate for one hour at room temperature.
Dose-response curves were generated and inhibitory concentration (IC50) values were calculated using non-linear regression curve fit in the Dotmatics' Studies Software (Bishops Stortford, UK).
Compounds were acoustically transferred on 1536-well plates (Echo 550, LabCyte) instrument. Kinase, peptide, and ATP reagents from the Z′-LYTE Kinase Assay Kits (Thermo Fisher) were dispensed onto the compound plates using an EL406 liquid dispenser (BioTek). Plates were incubated in the dark at room temperature for 1 hr. Development reagent was added to the plates and then incubated in the dark at room temperature for 1 hr. Fluorescence signal form the plate was then read using an EnVision Multilabel Plate Reader (Perkin Elmer).

[6] = system: prostate cancer (5 cell lines); assay: CellTiter-Glo Viability Assay, prostate cancer; type: cell-based; settings: Homo sapiens
BT-549 = assay: CellTiter-Glo Viability Assay, breast cancer; type: cell-based; settings: Homo sapiens, 96 h; BT-549, breast cancer, four days; read-out: EC50
T47D = assay: CellTiter-Glo Viability Assay, breast cancer; type: cell-based; settings: Homo sapiens, 96 h, breast cancer, four days, read-out: EC50
ZR-75-1 = assay: CellTiter-Glo Viability Assay, breast cancer; type: cell-based; settings: Homo sapiens, 96 h; ZR-75-1, breast cancer, four days; read-out: EC50
HCC1599 = assay: CellTiter-Glo Viability Assay, breast cancer; type: cell-based; settings: Homo sapiens, 96 h; HCC1599, breast cancer, four days; read-out: EC50
MCF7 = assay: CellTiter-Glo Viability Assay, breast cancer; type: cell-based; settings: Homo sapiens, 96 h; MCF7, breast cancer, four days; read-out: EC50
CAMA1 = assay: CellTiter-Glo Viability Assay, breast cancer; type: cell-based; settings: Homo sapiens, CAMA-1, 96 h; CAMA1, breast cancer, four days; read-out: EC50
DU4475 = assay: CellTiter-Glo Viability Assay, breast cancer; type: cell-based; settings: Homo sapiens, DU-4475, 96 h; DU4475, breast cancer, four days; read-out: EC50
MDA-MB-231-Luc = assay: CellTiter-Glo Viability Assay, breast cancer; type: cell-based; settings: Homo sapiens, 96 h; MDA-MB-231-Luc, breast cancer, four days; read-out: EC50
[7] = system: lung cancer (4 cell lines); assay: CellTiter-Glo Viability Assay, lung cancer; type: cell-based; settings: Homo sapiens, inhibition of cancer cell proliferation

EC50 (CLK2): 4.9 nM
EC50 ([1]; HCT-116, HCT116 cell line, read-out: Colorectal cancer, EC50 (μM) HCT116): 0.904 µM
EC50 ([1]; HT-29, HT29 cell line, read-out: Colorectal cancer, EC50 (μM) HT29): 1.32 µM
EC50 ([1]; SW-620, SW620 cell line, read-out: Colorectal cancer, EC50 (μM) SW620): 0.798 µM
EC50 ([1]; DLD-1 cell line, read-out: Colorectal cancer, EC50 (μM) DLD-1): 1.1 µM
EC50 ([1]; SW48 cell line, read-out: Colorectal cancer, EC50 (μM) SW48): 0.394 µM
EC50 ([1]; SW480 cell line, read-out: Colorectal cancer, EC50 (μM) SW480): 1.7 µM
EC50 ([2]; SNU-398, SNU398 cell line, read-out: Liver cancer, EC50 SNU398): 177 nM
EC50 ([2]; HEPG2 cell line, read-out: Liver cancer, EC50 HEPG2): 6940 nM
EC50 ([2]; PLC/PRF/5 cell line, read-out: Liver cancer, EC50 PLC/PRF/5): 4290 nM
EC50 ([3]; BXPC-3, BxPC3 cell line, read-out: Pancreatic cancer, EC50 BxPC3): 1250 nM
EC50 ([3]; CAPAN-1, Capan1 cell line, read-out: Pancreatic cancer, EC50 Capan1): 950 nM
EC50 ([3]; Capan-2, Capan2 cell line, read-out: Pancreatic cancer, EC50 Capan2): 1160 nM
EC50 ([3]; MIA PaCa-2 cell line, read-out: Pancreatic cancer, EC50 MIA PaCa-2): 759 nM
EC50 ([3]; PANC 05.04 cell line, read-out: Pancreatic cancer, EC50 PANC 05.04): 2880 nM
EC50 ([3]; PANC-1 cell line, read-out: Pancreatic cancer, EC50 PANC-1): 2630 nM
EC50 ([3]; UPAFII cell line, read-out: Pancreatic cancer, EC50 UPAFII): 1030 nM
EC50 ([4]; DND41, DND-41 cell line, read-out: Haematopoietic & Lymphoid tumors, EC50 (μM) DND-41): 0.538 µM
EC50 ([4]; MV4-11, MV-4-11 cell line, read-out: Haematopoietic & Lymphoid tumors, EC50 (μM) MV-4-11): 0.542 µM
EC50 ([4]; Rec1, REC-1 cell line, read-out: Haematopoietic & Lymphoid tumors, EC50 (μM) REC-1): 0.203 µM
EC50 ([4]; SU-DHL-4, SUDHL4 cell line, read-out: Haematopoietic & Lymphoid tumors, EC50 (μM) SUDHL4): 0.514 µM
EC50 ([4]; HL-60 cell line, read-out: Haematopoietic & Lymphoid tumors, EC50 (μM) HL-60): 2.46 µM
EC50 ([4]; JM1 cell line, read-out: Haematopoietic & Lymphoid tumors, EC50 (μM) JM1): 0.21 µM
EC50 ([4]; JURKAT, Clone E6-1 cell line, read-out: Haematopoietic & Lymphoid tumors, EC50 (μM) JURKAT, Clone E6-1): 1.26 µM
EC50 ([4]; JeKo-1 cell line, read-out: Haematopoietic & Lymphoid tumors, EC50 (μM) JeKo-1): 0.259 µM
EC50 ([4]; KASUMI-1 cell line, read-out: Haematopoietic & Lymphoid tumors, EC50 (μM) KASUMI-1): 1.16 µM
EC50 ([4]; Loucy cell line, read-out: Haematopoietic & Lymphoid tumors, EC50 (μM) Loucy): 0.916 µM
EC50 ([4]; MOLT-4 cell line, read-out: Haematopoietic & Lymphoid tumors, EC50 (μM) MOLT-4): 1.35 µM
EC50 ([4]; TF-1 cell line, read-out: Haematopoietic & Lymphoid tumors, EC50 (μM) TF-1): 3.93 µM
EC50 ([4]; TOLEDO cell line, read-out: Haematopoietic & Lymphoid tumors, EC50 (μM) TOLEDO): 0.337 µM
EC50 ([5]; PA-1, PA1 cell line, read-out: Ovarian cancer, EC50 (μM) PA1): 1.36 µM
EC50 ([5]; TOV112D, TOV-112D cell line, read-out: Ovarian cancer, EC50 (μM) TOV-112D): 1.43 µM
EC50 ([5]; OV-90 cell line, read-out: Ovarian cancer, EC50 (μM) OV-90): 3.65 µM
EC50 ([5]; OVCAR-3 cell line, read-out: Ovarian cancer, EC50 (μM) OVCAR-3): 0.866 µM
EC50 (CLK3): 38.2 nM
EC50 ([6]; DU-145, read-out: Prostate cancer EC50 Du-145): 1480 nM
EC50 ([6]; PC-3, PC3 cell line, inhibition of cancer cell proliferation, read-out: Prostate cancer EC50 PC3): 1640 nM
EC50 ([6]; 22Rv1 cell line, inhibition of cancer cell proliferation, read-out: Prostate cancer EC50 22Rv1): 643 nM
EC50 ([6]; LNCap clone FGC cell line, inhibition of cancer cell proliferation, read-out: Prostate cancer EC50 LNCap clone FGC): 7840 nM
EC50 ([6]; VCaP (Sigma) cell line, inhibition of cancer cell proliferation, read-out: Prostate cancer EC50 VCaP (Sigma)): 525 nM
EC50 (BT-549): 1550 nM
EC50 (T47D): 7090 nM
EC50 (ZR-75-1): 2960 nM
EC50 (HCC1599): 1050 nM
EC50 (MCF7): 4120 nM
EC50 (CAMA1): 2650 nM
EC50 (DU4475): 1370 nM
EC50 (MDA-MB-231-Luc): 3050 nM
EC50 ([7]; A-427, A427 cell line, read-out: Lung cancer, EC50 (μM) A427): 1.12 µM
EC50 ([7]; HCC78, HCC-78 cell line, read-out: Lung cancer, EC50 (μM) HCC-78): 3.41 µM
EC50 ([7]; NCI-H460 cell line, read-out: Lung cancer, EC50 (μM) NCI-H460): 1.17 µM
EC50 ([7]; NCI-H522 cell line, read-out: Lung cancer, EC50 (μM) NCI-H522): 0.522 µM
SMILES: Cc1cc2ncc(-c3ccc4cnc(NC(=O)c5ccnc(N6CCN(C)CC6)c5)cc4c3)cc2[nH]1 [Compound 87]
EC50 (all 50 cell lines): 1830 nM

Reference: US20220062240A1, “METHODS OF TREATING CANCER USING A CLK INHIBITOR” (BioSplice Therapeutics, Inc., priority 2018, published 2022)
